These results are taken from patent publication US6541468B1, “Indolocarbazole derivatives useful for the treatment of neurodegenerative diseases and cancer” (Bayer Corporation, priority 1998, dated 2003).

One experiment has as its target T1, PKA (Bos taurus, UniProt P00517).
T1 construct: The catalytic subunit of bovine heart PKA was obtained commercially from Sigma; purchased Sigma; host or cells: bovine heart
In words: PKA catalytic subunit inhibition assay. The class given is biochemical, bovine. Conditions: footnote a) on the CII value: partial inhibition only. Here is the method: Preparation of cAMP-dependent Kinase: The catalytic subunit of bovine heart PKA was obtained commercially from Sigma.
The catalytic subunit of PKA was assayed in 50 μl 25 mM HEPES, pH 7.0, 10 mM MgCl2, 1 mM EDTA, 1 mM DTT, using 70 ng PKA and 0.1 mg/mL human recombinant tau protein as a substrate.
(§1) Enzyme, substrate and inhibitor were preincubated for 5-10 min at 4° C. in assay buffers containing a final concentration of 2% DMSO before initiating the reaction with 0.25 mM γ^2P-ATP. Samples were incubated for 30 min at 37° C. and reactions were terminated with 10% trichloracetic acid/2% sodium pyrophosphate (TCA/PPA), followed by filtration over a glass fiber filtermat (type A) with a cell harvester (Tomtec). The filtermats were washed twice for several hours with TCA/PPA until all background radioactivity was removed. Precipitable counts were quantitated directly on the filtermat with a microbeta scintillation counter system (Wallac-Pharmacia). Inhibitor data were subjected to curve fitting and IC50 values were calculated from these curves using the GraphIt program.

The test system of another experiment is tau hyperphosphorylation. In words: Okadaic acid induced AD-like tau hyperphosphorylation in SY5Y cells. The class given is cell-based, human. The note with it: for IC50: Homo sapiens. Here is the method:
(§2) SKNSH-SY 5Y cells were plated on fibronectin-coated 6 well (30 mm^2) culture dishes (Biocoat®, Collaborative Biomedical Products, Inc.) and grown to confluence in 5 mL of 50% D-MEM/50% F-12 Nutrient Mixture (Ham) supplemented with 15% heat-inactivated bovine serum (JRH Bioscience), 0.1 mM non-essential amino acids solution, 2 mM glutamine and pen/strep/fungizone (GibcoBRL Life Technologies, Inc.). Cell culture medium was changed every 48 hours.
(§3) For drug testing, cells were routinely pretreated with inhibitors in 1 mL (30 mm2) for 60 min at concentrations of 30 nM, 100 nM, 300 nM, […]. Compound stocks were all at 10 mM in DMSO and dilutions were made in DMSO. Cells were then treated with 1 μM okadaic acid (ammonium salt; LC Laboratories, dissolved at 1 mM in DMSO) for 90 min. All experiments, including controls, contained a final concentration of between 0.5 and 1% DMSO.
Cells were detached from 30 mm^2 plates and suspended into 1 mL of ice-cold PBS by gentle trituration, transferred into microcentrifuge tubes and sedimented for 12 seconds at 14,000×g. The supernatant was removed and cells were lysed in 250 μl cold homogenization buffer (50 mM MES, pH 5.8, 5 mM sodium pyrophosphate, 50 mM p-nitrophenylphosphate, 1 μM okadaic acid, 2 mM Na-orthovandate, 1 mM EDTA, 1 mM EGTA, 1 mM DTT, 10^ glycerol, 10 μM leupeptin, 1 μM pepstatin, 1 mg/mL aprotinin, 10 μM chymostatin, 1 mM PMSF, and 1% TRITON® x100) and vortexed briefly to aid in lysis. Cell debris was removed by centrifugation at 14,000×g for 5 minutes at 4° C. and cell supernatants were analyzed by anti-ERK2 and anti-tau Western-blotting as described below.
(§4) […] of total cell lysate was run on a 10% tris-glycine polyacrylamide gels (Novex, 1.5 mm×10 well) at 100 volts for 2.5 hors and Western-blotted on nitrocellulose (Novex) overnight at 23 volts or 1.5 hrs at 100V in transfer buffer [Towbin et al. Proc. Natl. Acad. Sci. USA 76, 4350-4354 (1979]) at 4° C. Blots were analyzed for ERK2 and phosphotyrosine immunoreactivity with anti-ERK1+2 (Z033; Zymed Laboratories, Inc.; 1:5,000) and anti-phosphotyrosine (4G10; Upstate Biotechnology Inc.; 1:1,000) mAbs. Blots were also analyzed for phosphorylation-sensitive Tau immuno-reactivity with mAb Tau-1 (Boehringer Mannheim; 1:5,000) and phosphorylation dependent mAb AT8 against FHF-tau (Biosource International; 1:200). Total Tau populations were detected by Tau-1 immunoblotting after treating blots for 16 hrs at 37° C. with 100 units/mL alkaline phosphatase (Gibco BRL) in 5 mL of 50 mM Tris-HCI (pH 8.5), 0.1 mM EDTA. All blots were developed using ECL (enhanced chemiluminescence) Western blotting protocol (Amersham Life Science) with horseradish peroxidase-linked sheep anti-mouse secondary antibody and analyzed on Kodak X-OMAT AR scientific imaging film. Films were scanned into Adobe Photoshop and imported into NIH Image 1.44, where densitometric analysis was performed. Changes in tau phosphorylation were assessed by normalizing densitometrically determined mAb Tau-1 immunoreactivities in cell extracts to Tau-1 reaction after dephosphorylation on the blot. Ratios of Tau-1 reactivity prior to and after dephosphorylation were expressed in % relative to the ratio obtained from control cells not treated with okadaic acid (100%). Proteins isolated form neonatal rat brain were used for comparison in some experiments.
Correlation of potencies of inhibition of PK40 activity in vitro, and of OA-induced ERK2 and tau phosphorylation in SY5Y cells. ERK2 phosphorylation was quantified as the ratio of low mobility/total ERK2, densitometrically determined from ERK2 Western-blots (e.g. of FIG. 1). Tau hyperphosphorylation was expressed as densitometrically measured Tau-1 immunoreactivity normalized to total Tau-1 reactivity after unmasking of the epitope by phosphatase treatment of the blots.
Prevention of tau hyperphosphorylation by the preferred compound CIII (FIG. 1). […]

The next experiment concerns the target T2, cdc2 kinase (Homo sapiens, UniProt P06493).
T2 construct: Human cdc2 kinase was prepared from nocodazole-arrested HeLa cells; endogenous in cells; host or cells: nocodazole-arrested HeLa cells
Description: cdc2 kinase inhibition assay. Type of experiment: biochemical. Conditions: 0.25 mM ATP, human recombinant tau substrate. Here is the method:
Preparation of cdc2 Kinase: Human cdc2 kinase was prepared from nocodazole-arrested HeLa cells according to Marshak D. M. er al., J. Cell Biochem., 45, 391-400 (1991).
cdc2 kinase was assayed in 50 μl 25 mM HEPES, pH 7.0, 1 mM Mg^2+, 0.25 mM ATP (150-300 cpm/pmole), 1 mM DTT, using 0.5 ng cdc2 kinase, 5 μg human recombinant tau as substrate, and 0.1 mg/mL BSA a as carrier.
as §1

The test system of another experiment is ERK2 activation. Description: Okadaic acid induced ERK2 phosphorylation/activation in SY5Y cells. The class given is cell-based, human. Conditions: 1 μM okadaic acid; for IC50: Homo sapiens. Here is the method:
as §2, §3
Cells were detached from 30 mm^2 plates and suspended into 1 mL of ice-cold PBS by gentle trituration, transferred into microcentrifuge tubes and sedimented for 12 seconds at 14,000×g. […] Cell debris was removed by centrifugation at 14,000×g for 5 minutes at 4° C. and cell supernatants were analyzed by anti-ERK2 and anti-tau Western-blotting as described below.
as §4, with “Films were scanned into Adobe Photoshop and imported into NIH Image 1.44, where densitometric analysis was performed.” left out, “Ratios of Tau-1 reactivity prior to and after dephosphorylation were expressed in % relative to the ratio obtained from control cells not treated with okadaic acid (100%). Proteins isolated form neonatal rat brain were used for comparison in some experiments.” left out

The mark [1] stands for this setting: SY5Y, 1 μM okadaic acid, means of triplicate determinations, read-out: Inhibition in SY5Y cells of tau hyperphos. IC50.
Where [2] appears, read: SY5Y, means of triplicate determinations, read-out: Inhibition in SY5Y cells of ERK2 activation IC50.

Where two headings read alike, the source gives them in different places. A value given as a limit tells only on which side of the number the result lay.

T2 sequence (P06493 whole entry): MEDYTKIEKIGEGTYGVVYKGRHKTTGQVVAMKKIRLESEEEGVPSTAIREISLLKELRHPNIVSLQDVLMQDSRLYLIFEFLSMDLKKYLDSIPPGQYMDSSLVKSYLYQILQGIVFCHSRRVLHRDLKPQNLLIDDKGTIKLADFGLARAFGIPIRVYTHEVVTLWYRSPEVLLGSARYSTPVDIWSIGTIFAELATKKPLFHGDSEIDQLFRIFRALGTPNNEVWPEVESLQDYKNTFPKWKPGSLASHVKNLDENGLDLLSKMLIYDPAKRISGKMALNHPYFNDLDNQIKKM
T2 sequence (P14635 whole entry partner): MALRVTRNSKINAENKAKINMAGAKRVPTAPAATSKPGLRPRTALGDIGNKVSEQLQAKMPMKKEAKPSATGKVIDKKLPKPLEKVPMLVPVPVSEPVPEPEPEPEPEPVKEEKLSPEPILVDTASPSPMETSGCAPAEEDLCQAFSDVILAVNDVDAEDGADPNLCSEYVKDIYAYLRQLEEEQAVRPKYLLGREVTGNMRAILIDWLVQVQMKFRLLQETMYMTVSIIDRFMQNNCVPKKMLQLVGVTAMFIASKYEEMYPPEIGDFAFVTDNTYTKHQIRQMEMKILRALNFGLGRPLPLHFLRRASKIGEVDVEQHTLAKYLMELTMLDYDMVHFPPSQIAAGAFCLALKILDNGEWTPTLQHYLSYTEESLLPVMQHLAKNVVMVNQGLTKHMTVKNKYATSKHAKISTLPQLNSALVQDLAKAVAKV

Consider `CNC(=O)[C@]1(O)CC2CC1n1c3ccccc3c3c4c(c5c6ccccc6n2c5c31)C(=O)NC4=O` (stereo partly drawn) [CII, 9,12-Methano-1H-diindolo[1,2,3-fg:3′,2′,1′-kl]pyrrolo[3,4-I][1,6] benzodiazocine-10-carboxamide, 2,3,9,10,11,12-hexahydro-10-hydroxy-N-methyl-1,3-dioxo-(9α,10β,12α)], for which the IC50 worked out at 650 nM at PKA; 580 nM in the experiment on tau hyperphosphorylation (setting [1]); 100 nM in the experiment with tau hyperphosphorylation (SY5Y cells, okadaic acid, read-out: IC50 for prevention of tau hyperphosphorylation in SY5Y cells); 44 nM at cdc2 kinase; 570 nM with ERK2 activation (setting [2]).

With `COC(=O)[C@@]1(O)C[C@H]2C[C@@H]1n1c3ccccc3c3c4c(c5c6ccccc6n2c5c31)C(=O)NC4=O` (relative stereo) [CIII, 9,12-Methano-1H-diindolo[1,2,3-fg:3′,2′,1′-kl]pyrrolo[3,4-I][1,6] benzodiazocine-10-carboxylic acid, 2,3,9,10,11,12-hexahydro-10-hydroxy-1,3-dioxomethyl ester, (9α,10β,12α)], the IC50 is > 100000 nM at PKA; 3600 nM with tau hyperphosphorylation (setting [1]); 3800 nM at cdc2 kinase; 5700 nM in the experiment on ERK2 activation (setting [2]); ~1000 nM in the experiment on ERK2 activation (SY5Y cells, read-out: IC50 for prevention of okadaic acid induced ERK2 phosphorylation/activation (FIG. 4)). In addition, the “Effect on normal tau phosphorylation” value in the experiment on tau hyperphosphorylation (SY5Y cells not treated by okadaic acid) is “apparently not affected”. For the same molecule, in the experiment on tau hyperphosphorylation (SY5Y cells, 1 μM okadaic acid), the “Fully effective doses for prevention of tau hyperphosphorylation” value was > 1 µM. Moreover, the “Prevention of okadaic acid induced tau hyperphosphorylation (FIG. 1)” value in the experiment on tau hyperphosphorylation (SY5Y cells, 1 μM okadaic acid, Tau-1 Western blot) is given as “prevents the tau hyperphosphorylation in a dose dependent manner”. Also, in the experiment on ERK2 activation (SY5Y cells), the “Concentration at which prevention of ERK2 phosphorylation/activation is complete” value was found to be 10 µM.
